Measured values published in patent US20260014167A1, “Treating Amyotrophic Lateral Sclerosis Having Onset 24 Months Prior to Treatment” (Woolsey Pharmaceuticals, Inc., priority 2022, published 2026).
Read-outs that look alike come from different tables or passages of the source.

Experiments:
[1] = test system: ALS disease onset of between 3 and 36 months; conditions: 30 mg, twice a day, 6-month study; cited from earlier work
human ALS patients = conditions: 30 mg intravenously twice daily over 20 consecutive working days; cited from earlier work
ALS patients [2] = assay: Fasudil treatment of patients with disease onset at least 24 months prior to treatment; type: in vivo, human
Description: This could not have been predicted from the trials with edaravone, above. […] (Liu 2016). The invention is based on the surprising discovery that orally-administered fasudil can treat ALS patients with disease onset of about two years or more prior treatment. These patients include but are not limited to patients with more advanced disease, but also includes slow-progressing patients.

[3] = in vivo, 1-hydroxy (M3) metabolite; cited from earlier work
ALS patients [4] = conditions: patients diagnosed two years or less; cited from earlier work
ALS patients [5] = conditions: enrollment of three years or less; cited from earlier work
severe ALS patients = conditions: disease onset of less than three years; cited from earlier work

Structure (SMILES): Cl.O=S(=O)(c1cccc2cnccc12)N1CCCNCC1 [Fasudil, Hexahydro-1-(5-isoquinolinesulfonyl)-1H-1,4-diazepine monohydrochloride hemihydrate]
- disease modification [1]: did not result in any disease modification
- outcome of compassionate use (human ALS patients): no conclusive results beyond safety
- benefit from treatment (ALS patients [2]): benefitted

Structure (SMILES): O=S(=O)(c1cccc2c(O)nccc12)N1CCCNCC1 [M3, hydroxyfasudil]
- half-life [3]: about 8 hours

Structure (SMILES): CC1=NN(c2ccccc2)C(=O)C1 [edaravone]
- primary endpoint (ALS patients [4]): met the primary endpoint
- primary endpoint (ALS patients [5]): did not meet the primary endpoint
- treatment effect between placebo and edaravone (severe ALS patients): failed to demonstrate any treatment effect
